Series [1] has as its system HepG2 cells. The series is described as follows: Toxicity test of compound to hepatocytes: number of viable cells (Cell Titer-Glo). The class given is cell-based, human. As to conditions: DAG 0.015%, 1 day, no addition = 1. On the procedure: (§1) This aqueous solution was sterilized at 121°C for 20 min in an autoclave. On the other hand, HepG2 cells was mixed with DMEM medium (manufactured by WAKO) at 100000 cells/mL, and the cell suspension was dispensed to the wells of a 96-well flat bottom ultra low adhesion surface microplate (manufactured by Corning Incorporated, #3474) at 100 µL/well. […] Successively, this plate was cultured by being stood still in a CO2 incubator (37°C, 5% CO2) for 1 day.
The culture medium (50 µL) after culturing for 1 day was dispensed to a 96-well titer plate (manufactured by Corning Incorporated), to this culture medium was added a Cell Titer-Glo (registered trade mark) reagent (manufactured by Promega, 50 µL), and the mixture was incubated at room temperature for 10 min. The luminescence intensity was measured by a multiplate reader (manufactured by Molecular Devices, FlexStation3) to measure the number of viable cells.

Series [2] concerns HepG2 cells. The series is described as follows: Toxicity test of compound to hepatocytes: LDH activity measurement. The class given is cell-based, human. To be noted: DAG 0.015%, 1 day. On the procedure:
as §1
To the culture medium (100 µL) after culturing for 1 day was added DMEM medium (manufactured by WAKO, 100 µL), and the plate was centrifuged by 4316.4 m·s^-2 (440G) for 15 min. The supernatant (100 µL) was dispensed to a 96-well titer plate (manufactured by Corning Incorporated), a reaction mixture (100 µL) in a cytotoxicity detection kit (manufactured by Roche Applied Science) was added, and the mixture was stood under shading at room temperature for 30 min. Successively, according to the protocol of the above-mentioned kit, the absorbance at 490 nm (reference; 600 nm) was measured by an absorbance spectrometer (manufactured by Molecular Devices, SPECTRA MAX 190), whereby the rate of the disordered cell, that is, cell disorder rate (%), was measured.

For `Cc1c(C)c2c(c(C)c1O)CCC(C)(COc1ccc(CC3SC(=O)NC3=O)cc1)O2` (centres unmarked) [Troglitazone], the relative cell number amounted to 0.68 with HepG2 cells [1] (Troglitazone 20 µM), 0.50 with HepG2 cells [1] (Troglitazone 40 µM), 0.48 in the series on HepG2 cells [1] (Troglitazone 60 µM) and 0.39 in the series with HepG2 cells [1] (Troglitazone 100 µM). Further, the cell disorder rate in the series with HepG2 cells [2] (Troglitazone 20 µM) came to 2.68%; in the series on HepG2 cells [2] (Troglitazone 40 µM) it was 14.7%; in the series on HepG2 cells [2] (Troglitazone 60 µM), 22.5%; in the series with HepG2 cells [2] (Troglitazone 100 µM) it was 60.7%.

(Values after EP3409761B1, “CULTURE MEDIUM COMPOSITION, AND METHOD FOR CULTURING CELL OR TISSUE USING SAID COMPOSITION” (Nissan Chemical Corporation, priority 2012, dated 2014).)
